pIC50: −log10 of the molar value.
Legend:
CK1ε = CK1ε (Homo sapiens (Human), UniProt P49674); assay: CK1ε kinase assay (Caliper LABCHIP electrophoretic separation of fluoresceinated peptide substrate and product); format: biochemical; conditions: 200 pM enzyme, 50 μM ATP, 22 hours at room temperature
Method in brief: (§1)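 Incubated for twenty-two hours at ambient temperature, then quenched with EDTA and analyzed by electrophoretic separation of unphosphorylated and phosphorylated peptide.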

CK1δ = CK1δ (Homo sapiens (Human), UniProt P48730); assay: CK1δ kinase assay (Caliper LABCHIP electrophoretic separation of fluoresceinated peptide substrate and product); format: biochemical; conditions: 200 pM enzyme, 50 μM ATP, 22 hours at room temperature
Sequence of CK1δ (P48730 whole entry): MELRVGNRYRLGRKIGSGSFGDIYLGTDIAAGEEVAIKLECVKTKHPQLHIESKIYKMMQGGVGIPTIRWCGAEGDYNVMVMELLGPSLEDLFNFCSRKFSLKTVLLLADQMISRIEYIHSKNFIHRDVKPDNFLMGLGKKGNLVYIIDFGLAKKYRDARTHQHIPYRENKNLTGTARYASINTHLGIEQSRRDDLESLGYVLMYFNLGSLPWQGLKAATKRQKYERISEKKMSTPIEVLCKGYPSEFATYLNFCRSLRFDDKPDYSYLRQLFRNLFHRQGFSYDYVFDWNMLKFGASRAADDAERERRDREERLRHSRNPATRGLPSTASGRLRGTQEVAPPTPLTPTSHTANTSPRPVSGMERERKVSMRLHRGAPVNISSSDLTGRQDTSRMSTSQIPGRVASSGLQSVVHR
Method in brief: as §1

Sequence of CK1ε (P49674 whole entry): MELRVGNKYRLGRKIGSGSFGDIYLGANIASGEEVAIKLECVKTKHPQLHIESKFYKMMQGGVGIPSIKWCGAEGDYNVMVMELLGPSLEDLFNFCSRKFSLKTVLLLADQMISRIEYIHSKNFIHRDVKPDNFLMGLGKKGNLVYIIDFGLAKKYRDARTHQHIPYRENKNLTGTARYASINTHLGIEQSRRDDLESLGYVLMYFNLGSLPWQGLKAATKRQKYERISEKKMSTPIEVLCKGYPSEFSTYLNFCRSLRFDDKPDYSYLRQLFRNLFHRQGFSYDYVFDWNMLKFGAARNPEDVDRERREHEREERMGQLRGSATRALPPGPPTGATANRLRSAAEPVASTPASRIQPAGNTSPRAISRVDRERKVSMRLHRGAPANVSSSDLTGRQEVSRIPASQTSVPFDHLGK

Structure (SMILES)	pIC50 (CK1ε)	pIC50 (CK1δ)
Cc1oncc1C(=O)N1CCC(n2cnc(-c3ccc(F)cc3)c2-c2ccc3nc(NC(=O)c4ccnc(F)c4)cn3n2)CC1 [Compound 62, 2-fluoro-N-(6-(4-(4-fluorophenyl)-1-(1-(5-methylisoxazole-4-carbonyl)piperidin-4-yl)-1H-imidazol-5-yl)imidazo[1,2-b]pyridazin-2-yl)isonicotinamide]	9.59	9.50
CC1(C)CC1C(=O)N1CCC(n2cnc(-c3ccc(F)cc3)c2-c2ccc3nc(NC(=O)c4ccnc(F)c4)cn3n2)CC1 (stereo not shown) [Compound 66, N-(6-(1-(1-(2,2-dimethylcyclopropanecarbonyl)piperidin-4-yl)-4-(4-fluorophenyl)-1H-imidazol-5-yl)imidazo[1,2-6]pyridazin-2-yl)-2-fluoroisonicotinamide]	8.14	9.03
O=C(Nc1cn2nc(-c3c(-c4ccc(F)cc4)ncn3C3CC3)ccc2n1)c1ccnc(N2CCOCC2)c1 [Compound 428, N-(6-(1-Cyclopropyl-4-(4-fluorophenyl)-1H-imidazol-5-yl)imidazo[1,2-b]pyridazin-2-yl)-2-morpholinoisonicotinamide]	8.04	9.05
O=C(Nc1cn2nc(-c3c(-c4ccc(F)cc4)ncn3C3CCN(CCO)CC3)ccc2n1)c1ccnc(F)c1 [Compound 13, 2-fluoro-N-(6-(4-(4-fluorophenyl)-1-(1-(2-hydroxyethyl)piperidin-4-yl)-1H-imidazol-5-yl)imidazo[1,2-b]pyridazin-2-yl)isonicotinamide]	9.21	9.67
O=C(Nc1cn2nc(-c3c(-c4ccc(F)cc4)nc4n3CCN(C(=O)C3CC3)C4)ccc2n1)c1ccnc(F)c1 [Compound 469, N-(6-(7-(Cyclopropanecarbonyl)-2-(4-fluorophenyl)-5,6,7,8-tetrahydroimidazo[1,2-a]pyrazin-3-yl)imidazo[1,2-b]pyridazin-2-yl)-2-fluoroisonicotinamide]	7.89	8.64
O=C(Nc1cn2nc(-c3c(-c4ccc(F)cc4)ncn3C3CCN(S(=O)(=O)C4CC4)CC3)ccc2n1)c1ccnc(F)c1 [Compound 74, N-(6-(1-(1-(cyclopropylsulfonyl)piperidin-4-yl)-4-(4-fluorophenyl)-1H-imidazol-5-yl)imidazo[1,2-b]pyridazin-2-yl)-2-fluoroisonicotinamide]	8.82	9.17
O=C(Nc1cn2nc(-c3c(-c4ccc(F)cc4)ncn3C3CCN(C(=O)OCc4ccon4)CC3)ccc2n1)c1ccnc(F)c1 [Compound 86, isoxazol-3-ylmethyl 4-(5-(2-(2-fluoroisonicotinamido)imidazo[1,2-b]pyridazin-6-yl)-4-(4-fluorophenyl)-1H-imidazol-1-yl)piperidine-1-carboxylate]	9.07	9.54
O=C(Nc1cn2nc(-c3c(-c4ccccc4)ncn3CC(F)F)ccc2n1)c1ccnc(F)c1 [Compound 243, N-(6-(1-(2,2-difluoroethyl)-4-phenyl-1H-imidazol-5-yl)imidazo[1,2-b]pyridazin-2-yl)-2-fluoroisonicotinamide]	8.22	9.19

Next, values leading:

pIC50 (CK1ε)	pIC50 (CK1δ)	Structure (SMILES)
8.79	9.24	Cc1c(C(=O)Nc2cn3nc(-c4c(-c5ccc(F)cc5)nc(C)n4C)ccc3n2)cccc1-c1cccnc1 [Compound 403, N-(6-(4-(4-Fluorophenyl)-1,2-dimethyl-1H-imidazol-5-yl)imidazo[1,2-b]pyridazin-2-yl)-2-methyl-3-(pyridin-3-yl)benzamide]
8.93	9.51	COCCn1cnc(-c2ccc(F)cc2)c1-c1ccc2nc(NC(=O)c3ccnc(F)c3)cn2n1 [Compound 233, 2-fluoro-N-(6-(4-(4-fluorophenyl)-1-(2-methoxyethyl)-1H-imidazol-5-yl)imidazo[1,2-b]pyridazin-2-yl)isonicotinamide]
7.73	8.46	Cc1nc(-c2ccc(F)cc2)c(-c2ccc3nc(NC(=O)c4ccc(-c5ccc(Cl)cc5)[nH]4)cn3n2)n1C [Compound 329, 5-(4-chlorophenyl)-N-(6-(4-(4-fluorophenyl)-1,2-di-methyl-1H-imidazol-5-yl)imidazo[1,2-b]pyridazin-2-yl)-1H-pyrrole-2-carboxamide]
7.73	8.44	O=C(Nc1cn2nc(-c3c(-c4ccc(F)cc4)ncn3-c3ccc(F)cc3)ccc2n1)c1cccc(-c2cccnc2)c1 [Compound 420, N-(6-(1,4-bis(4-Fluorophenyl)-1H-imidazol-5-yl)imidazo[1,2-b]pyridazin-2-yl)-3-(pyridin-3-yl)benzamide]
8.28	9.49	Cc1nc(-c2ccncc2)sc1C(=O)Nc1cn2nc(-c3c(-c4ccc(F)cc4)nc(C)n3C)ccc2n1 [Compound 308, N-(6-(4-(4-fluorophenyl)-1,2-dimethyl-1H-imidazol-5-yl)imidazo[1,2-b]pyridazin-2-yl)-4-methyl-2-(pyridin-4-yl) thiazole-5-carboxamide]
8.55	8.66	CN1CC(n2cnc(-c3ccc(F)cc3)c2-c2ccc3nc(NC(=O)c4ccnc(F)c4)cn3n2)C1 [Compound 149, 2-fluoro-N-(6-(4-(4-fluorophenyl)-1-(1-methylazetidin-3-yl)-1H-imidazol-5-yl)imidazo[1,2-b]pyridazin-2-yl)isonicotinamide]
8.40	9.40	Cc1nc(-c2ccc(F)cc2)c(-c2ccc3nc(NC(=O)c4ccc(C#N)nc4)cn3n2)n1C [Compound 374, 6-cyano-N-(6-(4-(4-fluoro-phenyl)-1,2-dimethyl-1H-imidazol-5-yl)imidazo[1,2-b]pyridazin-2-yl)nicotinamide]
7.40	8.51	Cc1nc(-c2ccc(F)cc2)c(-c2ccc3nc(NC(=O)[C@@H]4CC(F)(F)CN4)cn3n2)n1C [Compound 316, (S)-4,4-difluoro-N-(6-(4-(4-fluorophenyl)-1,2-dimethyl-1H-imidazol-5-yl)imidazo[1,2-b]pyridazin-2-yl)pyrrolidine-2-carboxamide]
8.24	8.79	Cc1nc(-c2ccc(F)cc2)c(-c2ccc3nc(NC(=O)c4cc[nH]c4)cn3n2)n1C [Compound 348, N-(6-(4-(4-fluorophenyl)-1,2-dimethyl-1H-imidazol-5-yl)imidazo[1,2-b]pyridazin-2-yl)-1H-pyrrole-3-carboxamide]
8.48	8.88	Cc1nc(-c2ccc(F)cc2)c(-c2ccc3nc(NC(=O)c4ccc(-c5ccccc5)[nH]4)cn3n2)n1C [Compound 333, N-(6-(4-(4-fluorophenyl)-1,2-dimethyl-1H-imidazol-5-yl)imidazo[1,2-b]pyridazin-2-yl)-5-phenyl-1H-pyrrole-2-carboxamide]
7.14	8.02	O=C(Nc1cn2nc(-c3c(-c4ccc(F)cc4)ncn3Cc3cc(C4CC4)[nH]n3)ccc2n1)c1ccnc(F)c1 [Compound 270, N-(6-(1-((5-cyclopropyl-1H-pyrazol-3-yl)methyl)-4-(4-fluorophenyl)-1H-imidazol-5-yl)imidazo[1,2-b]pyridazin-2-yl)-2-fluoroiso-nicotinamide]
8.07	9.13	O=C(Nc1cn2nc(-c3c(-c4ccc(F)cc4)nc4ccccn34)ccc2n1)c1ccc(-c2cc[nH]n2)cc1 [Compound 170, N-(6-(2-(4-fluorophenyl)imidazo[1,2-a]pyridin-3-yl)imidazo[1,2-b]pyridazin-2-yl)-4-(1H-pyrazol-3-yl) benzamide]

Reference: patent publication US9556179B2 (BRISTOL-MYERS SQUIBB COMPANY, priority 2012, dated 2017)
